The results in this text go back to ChEMBL document CHEMBL1123583 (J Med Chem, 1987).

The nature of data set [1]: Acid dissociation constant was determined for the compound. It counts as ADME.
In data set [2] the target is Histamine H2 receptor (Cavia porcellus) (UniProt P47747).
The target is the same in data set [3]. The source holds these as a separate data set.
For data set [4] the target is unchanged. This is another data set of the same source.
The target in data set [5] is T1, Histamine H2 receptor (Cavia porcellus, UniProt P47747). As to the kind of experiment: Antagonistic activity of guinea pig Histamine H2 receptor expressed as pA2 at pH 7.0. It counts as functional. Particulars: read-out: pA2 (converted).
T1 sequence (P47747 whole entry): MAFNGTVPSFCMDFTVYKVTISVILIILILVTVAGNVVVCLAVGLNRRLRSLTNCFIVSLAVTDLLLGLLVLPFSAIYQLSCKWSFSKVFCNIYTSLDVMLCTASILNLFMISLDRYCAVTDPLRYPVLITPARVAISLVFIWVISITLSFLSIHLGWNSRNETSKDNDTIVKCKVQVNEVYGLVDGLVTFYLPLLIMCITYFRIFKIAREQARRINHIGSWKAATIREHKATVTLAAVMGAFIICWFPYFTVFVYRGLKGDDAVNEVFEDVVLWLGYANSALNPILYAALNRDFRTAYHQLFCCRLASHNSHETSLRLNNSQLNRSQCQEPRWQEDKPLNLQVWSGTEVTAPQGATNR
Data set [6] concerns the target T1, Histamine H2 receptor. As to the kind of experiment: Antagonistic activity of guinea pig Histamine H2 receptor expressed as pA2 at pH 7.4. Type of data set: functional. Particulars: read-out: pA2 (converted).
Data set [7] addresses T1, Histamine H2 receptor. As to the kind of experiment: Antagonistic activity of guinea pig Histamine H2 receptor expressed as pA2 at pH 7.8. Type of data set: functional. Particulars: read-out: pA2 (converted).

Histamine H2 receptor (Cavia porcellus), sequence (P47747 whole entry): as above

In the case of `CN/C(=N/CCSCc1nc[nH]c1C)NC#N` [CIMETIDINE], the pKa in data set [1] (read-out: pKa1) was 6.98.
`NCCc1c[nH]cn1` [HISTAMINE]: the pKa in data set [1] (read-out: pKa1) turned out to be 9.57; in data set [1] (read-out: pKa2) it was 6.1. The pD2 is 5.89 in data set [2], 5.81 in data set [3] and 5.88 in data set [4].
Regarding `CC(C)/N=C/Nc1ccc(-c2c[nH]cn2)cc1` [MIFENTIDINE], the pKa turned out to be 8.82 in data set [1] (read-out: pKa1) and 5.64 in data set [1] (read-out: pKa2). In addition, the Kb in data set [5] is 45.7 nM; in data set [6] it was 17.4 nM; in data set [7], 11.7 nM.
